Assay results published in ChEMBL document CHEMBL1201862, “PubChem BioAssay data set” (2004).
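Five compound concentrations were applied to cells in 96-well plates for 48 hours; endpoints were derived by simple linear interpolation of the resulting dose-response curve. Abbreviation: GI50, concentration required for 50% inhibition of growth.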 Active and inactive are the calls of the source. No stated cut-off is given here; in the data, active = GI50 up to about 1.1 µM and inactive = higher.

How the values were obtained:
Assay in all cases: NCI tumour cell line growth inhibition, 48 h
[1] = tested on: OVCAR-4
[2] = tested on: A549
[3] = tested on: SNB-19
[4] = tested on: HL-60
[5] = tested on: OVCAR-8
[6] = tested on: SK-MEL-5
[7] = tested on: UO-31
[8] = tested on: NCI-H460
[9] = tested on: BT-549
[10] = tested on: SW-620
[11] = tested on: DU-145
[12] = tested on: MDA-MB-435
[13] = tested on: SF-268
[14] = tested on: LOX IMVI
[15] = tested on: U-251
[16] = tested on: MDA-MB-231
[17] = tested on: K562
[18] = tested on: SF-295
[19] = tested on: MDA-N
[20] = tested on: Hs-578T
[21] = tested on: NCI-H23
[22] = tested on: NCI-H522
[23] = tested on: SF-539
[24] = tested on: RXF 393
[25] = tested on: CAKI-1
[26] = tested on: HT-29
[27] = tested on: SNB-75
[28] = tested on: ACHN
[29] = tested on: SK-OV-3
[30] = tested on: EKVX
[31] = tested on: UACC-62
[32] = tested on: HOP-62
[33] = tested on: TK-10
[34] = tested on: UACC-257
[35] = tested on: RPMI-8226
[36] = tested on: HOP-92
[37] = tested on: T47D
[38] = tested on: MCF7
[39] = tested on: IGROV-1
[40] = tested on: KM12
[41] = tested on: NCI-H226
[42] = tested on: OVCAR-5
[43] = tested on: HCT-116
[44] = tested on: PC-3
[45] = tested on: M14
[46] = tested on: OVCAR-3
[47] = tested on: 786-0
[48] = tested on: COLO 205
[49] = tested on: Malme-3M
[50] = tested on: NCI/ADR-RES
[51] = tested on: SN12C
[52] = tested on: SR
[53] = tested on: SK-MEL-28
[54] = tested on: HCC 2998
[55] = tested on: HCT-15
[56] = tested on: CCRF-CEM
[57] = tested on: MOLT-4

`Cc1nc(N/N=C/c2ccccc2Cl)[nH]c(=O)c1CCO` was tested, and the GI50 [1] was 87.3 µM (inactive), the GI50 [2] was > 100 µM (inactive) and the GI50 [3] was 51.6 µM (inactive). For the same compound, the GI50 [4] was > 100 µM (inactive), the GI50 [5] was 22 µM (inactive) and the GI50 [6] was > 100 µM (inactive). For the same compound, the GI50 [7] was > 100 µM (inactive), the GI50 [8] was 80 µM (inactive) and the GI50 [9] was 57.1 µM (inactive). The GI50 [10] was > 100 µM (inactive), the GI50 [11] was > 100 µM (inactive) and the GI50 [12] was > 100 µM (inactive). For the same compound, the GI50 [13] was 33.5 µM (inactive), the GI50 [14] was > 100 µM (inactive) and the GI50 [15] was 49.3 µM (inactive). For the same compound, the GI50 [16] was 71 µM (inactive), the GI50 [17] was > 100 µM (inactive) and the GI50 [18] was 25.2 µM (inactive). The GI50 [19] was > 100 µM (inactive), the GI50 [20] was 29.4 µM (inactive) and the GI50 [21] was 35.8 µM (inactive). The GI50 [22] was 17.9 µM (inactive), the GI50 [23] was 77.4 µM (inactive) and the GI50 [24] was 25.9 µM (inactive). For the same compound, the GI50 [25] was > 10 µM (inactive), the GI50 [26] was > 100 µM (inactive) and the GI50 [27] was 17.2 µM (inactive). For the same compound, the GI50 [28] was > 100 µM (inactive), the GI50 [29] was 23.1 µM (inactive) and the GI50 [30] was 86.9 µM (inactive). For the same compound, the GI50 [31] was 34.4 µM (inactive), the GI50 [32] was 21.1 µM (inactive) and the GI50 [33] was 76 µM (inactive). For the same compound, the GI50 [34] was > 100 µM (inactive), the GI50 [35] was 25.9 µM (inactive) and the GI50 [36] was 21.5 µM (inactive). For the same compound, the GI50 [37] was 24.8 µM (inactive), the GI50 [38] was 36.2 µM (inactive) and the GI50 [39] was 34 µM (inactive). The GI50 [40] was 59.7 µM (inactive), the GI50 [41] was > 100 µM (inactive) and the GI50 [42] was > 100 µM (inactive). For the same compound, the GI50 [43] was 38.8 µM (inactive), the GI50 [44] was > 100 µM (inactive) and the GI50 [45] was 87.7 µM (inactive). The GI50 [46] was 19.6 µM (inactive), the GI50 [47] was > 100 µM (inactive) and the GI50 [48] was > 100 µM (inactive). The GI50 [49] was 22 µM (inactive), the GI50 [50] was 61.1 µM (inactive) and the GI50 [51] was 47.4 µM (inactive). For the same compound, the GI50 [52] was > 100 µM (inactive), the GI50 [53] was 73.8 µM (inactive) and the GI50 [54] was > 100 µM (inactive). The GI50 [55] was 81.1 µM, the GI50 [56] was > 100 µM (inactive) and the GI50 [57] was > 100 µM (inactive).
